Assay results reported in publication PMC11040670, “Mechanistic and Kinetic Insights into Cellular Uptake of Biomimetic Dinitrosyl Iron Complexes and Intracellular Delivery of NO for Activation of Cytoprotective HO-1” (JACS Au, 2024).

How the values were obtained:
[1] = system: MSC/N2a/HCEC; test: Cell viability (CCK-8) of MSC/N2a/HCEC treated with DNICs; assay type: cell-based; settings: 24 h; for effect on cell viability: N2a/HCEC
Procedure: Cell viability study of MSC, N2a, and HCEC cells with or without the treatment of DNIC–COOH was performed using a Cell Counting Kit-8 (IMT Formosa New Materials Co., Ltd., Taiwan) according to the manufacturer’s protocol. Briefly, cells were seeded into a 96-well plate at a density of 4 × 10^3 cells/well for MSC, 1 × 10^4 cells/well for N2a, and 8 × 10^3 cells/well for HCEC, respectively, and incubated overnight. On the next day, cells were treated with DNIC–COOH at different concentrations and incubated for 24 h. The culture medium was then removed before the cells were washed with DPBS. After addition of fresh medium containing CCK-8 solution to the cells and incubation for 1–3 h, the absorbance at 450 nm was then measured on a microplate reader (SpectraMax iD3, Molecular Devices, San Jose, CA) with a reference wavelength of 650 nm. Three independent experiments were executed, and the results were represented as mean ± SEM% (n = 3) with the untreated cells (control) as 100% viability. Cell viability studies of MSC/N2a/HCEC cells (1) with the treatment of DNIC–COOMe for 24 h, (2) with the treatment of NEM for 0.5 h, (3) with the treatment of chlorpromazine (CPZ; TCI) for 0.5 h, (4) with the treatment of methyl-β-cyclodextrin (MβCD; Thermo Fisher Scientific) for 0.5 h, (5) with the treatment of genistein (Alfa Chemistry) for 0.5 h, (6) with the sequential treatments of ODQ for 1 h and DNIC–COOH for 3 h (MSC)/10 h (N2a)/6 h (HCEC), and (7) with the cotreatment of PTIO and DNIC–COOH for 3 h (MSC)/10 h (N2a)/6 h (HCEC), respectively, were performed in a similar manner. In addition to CCK-8 assay, a live/dead staining was performed using a ViaQuant Viability/Cytotoxicity Kit (GeneCopoeia, Rockville, MD) according to the manufacturer’s instruction.

[2] = system: MSC; test: Whole-cell EPR: cellular uptake and intracellular formation/decomposition of mononuclear DNIC in MSC; assay type: cell-based, human; settings: for tmax for cellular uptake and intracellular transformation (whole-cell EPR): normoxia, 100 μM DNIC–COOH or 2.5 μM DNIC–COOMe
Procedure: (§1) Cellular uptake of DNIC–COOH and intracellular formation/decomposition of mononuclear DNICs in MSC/N2a/HCEC cells were investigated using EPR spectroscopy. Briefly, cells were seeded into two (or one) 100 mm dish(es) at a density of 2 × 10^6 cells/dish and incubated at 37 °C overnight. On the next day, cells were treated with 100 μM of DNIC–COOH (or 100 μM of DNIC–COOH to N2a and 75 μM of DNIC–COOH to HCEC) and incubated for 0, 0.5, 1, 2, 3, 4, 8, and 24 h, respectively. After removal of the supernatant solution, cells were washed with DPBS before addition of 1 mL of trypsin (0.05%)/EDTA (0.53 mM) and incubation for 5 min at 37 °C. After the obtained cell suspension solutions from two 100 mm dishes were combined and centrifuged at 100g for 5 min, the supernatant was removed before addition of 100 μL of αMEM to DNIC-treated MSC (or MEM to DNIC-treated N2a and HSFM to DNIC-treated HCEC). This solution was then transferred into EPR quartz tube and frozen in N2(l) before the EPR measurements. For each measured EPR spectrum, double integration was executed to obtain the integrated EPR intensity under each condition. Moreover, time-dependent decay of integrated EPR signal intensity after treatment of DNIC–COOH was fit to pseudo-first-order kinetics in order to determine the intracellular half-life for EPR-active mononuclear DNIC. Three independent experiments were executed to measure the average half-life for intracellular decomposition of EPR-active mononuclear DNIC after treatment with DNIC–COOH at 37 °C. On the other hand, at the time point with maximum integrated EPR signal intensity, spin quantitation of intracellular EPR-active DNICs was performed using mononuclear DNIC [PPN][(NO)2Fe(S5)] as a standard according to the methodology used in the previous work.[50] Cellular uptake of DNIC–COOMe (2.5 μM to MSC, 10 μM to N2a, or 1 μM to HCEC) and intracellular formation/decomposition of EPR-active mononuclear DNICs were investigated using EPR spectroscopy in a similar manner.
(§2) Studies of cellular uptake mechanisms were investigated using EPR spectroscopy in combination with pretreatments of alternative inhibitors. After the MSC cells were seeded into two (or one) 100 mm dish(es) at a density of 2 × 10^6 cells/dish and incubated at 37 °C overnight, sequential treatments of 50 μM of NEM for 0.5 h and 100 μM of DNIC–COOH for 2 h were performed before the treated MSC cells were collected for EPR measurement following the procedure described above. […]

[3] = system: HCEC; test: Whole-cell EPR: cellular uptake and intracellular formation/decomposition of mononuclear DNIC in HCEC; assay type: cell-based, human; settings: for tmax for cellular uptake and intracellular transformation (whole-cell EPR): normoxia, 75 μM DNIC–COOH or 1 μM DNIC–COOMe
Procedure: as §1, §2

SMILES	biocompatibility in comparison with DNIC–COOMe ([1]; MSC/N2a/HCEC)	effect on cell viability [1]	relative whole-cell EPR signal intensity at gav = 2.03 (control = 100%) ([2]; CPZ-treated MSC)	tmax for cellular uptake and intracellular transformation (whole-cell EPR) ([2]; MSC)	tmax for cellular uptake and intracellular transformation (whole-cell EPR) ([3]; HCEC)	relative whole-cell EPR signal intensity at gav = 2.03 (control = 100%) ([3]; MβCD-treated HCEC)	relative whole-cell EPR signal intensity at gav = 2.03 (control = 100%) ([3]; genistein-treated HCEC)	relative whole-cell EPR signal intensity at gav = 2.03 (control = 100%) ([2]; MSC, native FBS replaced with 20% NEM-treated FBS)	relative whole-cell EPR signal intensity at gav = 2.03 (control = 100%) ([2]; MSC, pretreatment of NEM 0.5 h, then DNIC–COOMe 0.5 h, reduction)	relative whole-cell EPR signal intensity at gav = 2.03 (control = 100%) ([3]; HCEC, native FBS replaced with 2% NEM-treated FBS)	relative whole-cell EPR signal intensity at gav = 2.03 (control = 100%) ([3]; HCEC, pretreatment of NEM 0.5 h, then DNIC–COOMe 0.5 h, reduction)
O=[N][Fe]1([N]=O)[SH](CCC(=O)O)[Fe]([N]=O)([N]=O)[SH]1CCC(=O)O (centres unmarked) [DNIC–COOH, [(NO)2Fe(μ-SCH2CH2COOH)2Fe(NO)2]]	improved biocompatibility	dose-dependent cell-proliferation effect	84.2 ± 11.0%	2 h	8 h	77.5 ± 11.1%	72.1 ± 5.9%	–	–	–	–
COC(=O)CC[SH]1[Fe]([N]=O)([N]=O)[SH](CCC(=O)OC)[Fe]1([N]=O)[N]=O (centres unmarked) [DNIC–COOMe, [(NO)2Fe(μ-SCH2CH2COOCH3)2Fe(NO)2]]	–	dose-dependent cell-proliferation effect	–	0.5 h	0.5 h	–	–	172.4 ± 24.1%	29.7 ± 16.3%	99.9 ± 15.3%	35.8 ± 2.3%
